Reference: patent publication US20240058339A1, “COMBINATION THERAPY FOR CANCERS WITH KRAS MUTATION” (COTHERA BIOSCIENCE, INC., priority 2019, published 2024)

Test system: KRAS mutant colorectal cancer cells
Test: Cellular senescence assay, separate examples with single drugs
Assay type: cell-based
Protocol: Senescence is a state when cells enter a stable growth arrest. Unlike a quiescent cell, a senescent cell will not re-enter the cell cycle in response to any known physiological stimuli. A biomarker of senescence is the increased level of β-galactosidase activity at pH 6.0. Cellular senescence assay was performed with Senescence β-Galactosidase Cell Staining Kit (Cell Signaling, USA) according to the manufacturer's instructions. Briefly, cells cultured in 6-well tissue culture plates were treated with the designated drugs or DMSO. The cells were continually incubated for additional 4-8 days before being fixed for further testing. For senescence assay, b-Galactosidase Staining Solution was added to the fixed cells and the plates were incubated at 37° C. to allow color to develop. Microscopic images were then taken and the cells in senescence were indicated by the development of blue color (shown as black spots in the figures). The experimental design is the same as in Example 15.

Row | SMILES | induction of cell senescence
1 | COc1cc([C@@H]2c3cc4c(cc3[C@@H](O[C@@H]3O[C@@H]5CO[C@@H](C)O[C@H]5[C@H](O)[C@H]3O)[C@H]3COC(=O)[C@H]23)OCO4)cc(OC)c1O [etoposide] | did not induce cell senescence
2 | COc1cccc2c1C(=O)c1c(O)c3c(c(O)c1C2=O)C[C@@](O)(C(=O)CO)C[C@@H]3O[C@H]1C[C@H](N)[C@H](O)[C@H](C)O1 [doxorubicin] | did not induce cell senescence
